Experimental data published in ChEMBL document CHEMBL5136996, “Semisynthesis and Non-Small-Cell Lung Cancer Cytotoxicity Evaluation of Germacrane-Type Sesquiterpene Lactones from Elephantopus scaber” (J Nat Prod, 2022).
Active and inactive are the calls of the source. The calls are words filed in the database; no cut-off is given here.

Columns and labels:
[1] = test system: NCI-H460; test: Cytotoxicity against human NCI-H460 cells assessed as reduction in cell viability incubated for 48 hrs by MTT assay; type: functional, cell-based; conditions: NCI-H460, 48 h
[2] = test system: A549; test: Cytotoxicity against human A549 cells assessed as reduction in cell viability incubated for 48 hrs by MTT assay; type: functional, cell-based; conditions: A549, 48 h
[3] = test system: A549; test: Induction of intracellular ROS generation in human A549 cells incubated for 48 hrs by H2DCF-DA staining based flow cytometry; type: functional, cell-based; conditions: dose 3-10 µM, DDE = dose-dependent effect
[4] = test system: A549; test: Induction of apoptosis in human A549 cells assessed as late apoptotic cells at 3 uM incubated for 48 hrs by AnnexinV-FITC/PI staining based flow cytometry (reference value: 1.58 to 2.23%); type: functional
[5] = test system: A549; test: Induction of apoptosis in human A549 cells assessed as necrotic cells at 3 uM incubated for 48 hrs by AnnexinV-FITC/PI staining based flow cytometry (reference value: 2.23 to 4.25%); type: functional
[6] = test system: A549; test: Induction of apoptosis in human A549 cells assessed as increase in cleaved caspase-3 expression level at 3 to 10 uM incubated for 48 hrs by western blot analysis; type: functional, cell-based; conditions: dose 3-10 µM
[7] = test system: A549; test: Induction of cell cycle arrest in human A549 cells assessed as accumulation of cells at G2/M phase incubated for 48 hrs by PI staining based flow cytometry (reference value: 9.7 to 17.2%); type: functional
[8] = test system: A549; test: Induction of apoptosis in human A549 cells assessed as decrease in mitochondrial membrane potential by measuring reduction in ratio of red to green fluorescence intensity at 3 to 10 uM incubated for 48 hrs by JC-1 staining based flow cytometry; type: functional, cell-based; conditions: dose 3-10 µM
[9] = test system: A549; test: Induction of apoptosis in human A549 cells assessed as necrotic cells at 10 uM incubated for 48 hrs by AnnexinV-FITC/PI staining based flow cytometry (reference value: 2.23 to 4.25%); type: functional
[10] = test system: A549; test: Induction of apoptosis in human A549 cells assessed as early apoptotic cells at 10 uM incubated for 48 hrs by AnnexinV-FITC/PI staining based flow cytometry (reference value: 2.07 to 3.24%); type: functional
[11] = test system: A549; test: Induction of apoptosis in human A549 cells assessed as late apoptotic cells at 10 uM incubated for 48 hrs by AnnexinV-FITC/PI staining based flow cytometry (reference value: 1.58 to 2.23%); type: functional
[12] = Cytotoxicity against rat Primary hepatocytes assessed as cell viability at 25 uM incubated for 12 hrs; type: toxicity, cell-based, Hepatocyte; conditions: read-out: Activity
[13] = test system: A549; test: Induction of apoptosis in human A549 cells assessed as increase in cleaved caspase-9 expression level at 3 to 10 uM incubated for 48 hrs by western blot analysis; type: functional, cell-based; conditions: dose 3-10 µM
[14] = test system: A549; test: Induction of apoptosis in human A549 cells assessed as viable cells at 10 uM incubated for 48 hrs by AnnexinV-FITC/PI staining based flow cytometry (reference value: 91.5 to 92.9%); type: functional; conditions: read-out: Activity
[15] = test system: A549; test: Induction of apoptosis in human A549 cells assessed as viable cells at 3 uM incubated for 48 hrs by AnnexinV-FITC/PI staining based flow cytometry (reference value: 91.5 to 92.9%); type: functional; conditions: read-out: Activity
[16] = test system: A549; test: Induction of apoptosis in human A549 cells assessed as early apoptotic cells at 3 uM incubated for 48 hrs by AnnexinV-FITC/PI staining based flow cytometry (reference value: 2.07 to 3.24%); type: functional

Compound | IC50 [1] [µM] | IC50 [2] [µM] | other results
C=C1C(=O)O[C@H]2CC3=C[C@H](C/C(C)=C/[C@@H](OC(=O)C45CCC(C)(C(=O)O4)C5(C)C)[C@H]12)OC3=O | 2 | 3.4 | –
C=C1C(=O)O[C@H]2CC3=C[C@H](C/C(C)=C/[C@@H](OC(=O)CCCC(=O)O[C@@H]4/C=C(\C)C[C@H]5C=C(C[C@@H]6OC(=O)C(=C)[C@H]64)C(=O)O5)[C@H]12)OC3=O | > 10 | 5.6 | –
C=C1C(=O)O[C@H]2CC3=C[C@H](C/C(C)=C/[C@@H](OC(=O)c4ccc(C(=O)O[C@@H]5/C=C(\C)C[C@H]6C=C(C[C@@H]7OC(=O)C(=C)[C@H]75)C(=O)O6)s4)[C@H]12)OC3=O | 5.8 | 3.6 | –
C=C1C(=O)O[C@H]2CC3=C[C@H](C/C(C)=C/[C@@H](OC(=O)CC4CCCCC4)[C@H]12)OC3=O | 2 | 6.9 | –
C=C1C(=O)O[C@H]2CC3=C[C@H](C/C(C)=C/[C@@H](OC(=O)c4ccc([N+](=O)[O-])cc4)[C@H]12)OC3=O | > 10 | > 10 | –
C=C1C(=O)O[C@H]2CC3=C[C@H](C/C(C)=C/[C@@H](OC(=O)c4ccc(-c5ccccc5)cc4)[C@H]12)OC3=O | 3.5 | 4.6 | –
C=C1C(=O)O[C@H]2CC3=C[C@H](C/C(C)=C/[C@@H](OC(=O)CCC(=O)O[C@@H]4/C=C(\C)C[C@H]5C=C(C[C@@H]6OC(=O)C(=C)[C@H]64)C(=O)O5)[C@H]12)OC3=O | > 10 | > 10 | –
C=C1C(=O)O[C@H]2CC3=C[C@H](C/C(C)=C/[C@@H](OC(=O)/C=C/c4ccncc4)[C@H]12)OC3=O | 2.1 | 4 | –
C=C1C(=O)O[C@H]2CC3=C[C@H](C/C(C)=C/[C@@H](OC(=O)CCCCC(=O)O[C@@H]4/C=C(\C)C[C@H]5C=C(C[C@@H]6OC(=O)C(=C)[C@H]64)C(=O)O5)[C@H]12)OC3=O | 8.1 | 2.1 | –
CO[C@H]1C(=O)O[C@H]2CC3=C[C@H](C/C(C)=C/[C@@H](O)[C@@H]21)OC3=O | > 10 | > 10 | –
C=C1C(=O)O[C@H]2CC3=C[C@H](C/C(C)=C/[C@@H](OC(=O)c4ccc(C(F)(F)F)cc4)[C@H]12)OC3=O | > 10 | > 10 | –
C=C1C(=O)O[C@H]2CC3=C[C@H](C/C(C)=C/[C@@H](OC(=O)C4CCC(F)(F)CC4)[C@H]12)OC3=O | > 10 | 6.4 | –
C=C1C(=O)O[C@H]2CC3=C[C@H](C/C(C)=C/[C@@H](OC(=O)CCCCBr)[C@H]12)OC3=O | > 10 | > 10 | –
C=C1C(=O)O[C@H]2CC3=C[C@H](C/C(C)=C/[C@@H](OC(=O)CCCCC)[C@H]12)OC3=O | 5.9 | > 10 | –
C=C1C(=O)O[C@H]2CC3=C[C@H](C/C(C)=C/[C@@H](OC(=O)CC(C)C)[C@H]12)OC3=O | 3.8 | 2.5 | –
C=C1C(=O)O[C@H]2CC3=C[C@H](C/C(C)=C/[C@@H](OC(=O)c4ccc(C(=O)O[C@@H]5/C=C(\C)C[C@H]6C=C(C[C@@H]7OC(=O)C(=C)[C@H]75)C(=O)O6)cc4)[C@H]12)OC3=O | 0.7 | 1.5 | –
C=C1C(=O)O[C@H]2CC3=C[C@H](C/C(C)=C/[C@@H](OC(=O)/C=C/c4ccc5c(c4)OCO5)[C@H]12)OC3=O | 9.3 | 4.6 | –

Compound | IC50 [1] [µM] | IC50 [2] [µM] | other results
C=C1C(=O)O[C@H]2CC3=C[C@H](C/C(C)=C/[C@@H](OC(=O)/C=C/c4ccc(C(F)(F)F)cc4)[C@H]12)OC3=O | 1.4 | 5.9 | –
C=C1C(=O)O[C@H]2CC3=C[C@H](C/C(C)=C/[C@@H](OC(=O)C4(NC(=O)OCc5ccccc5)CC4)[C@H]12)OC3=O | 3 | 5.8 | –
C=C1C(=O)O[C@H]2CC3=C[C@H](C/C(C)=C/[C@@H](OC(=O)CCSSCCC(=O)O[C@@H]4/C=C(\C)C[C@H]5C=C(C[C@@H]6OC(=O)C(=C)[C@H]64)C(=O)O5)[C@H]12)OC3=O | 7.8 | 3.1 | –
C=C1C(=O)O[C@H]2CC3=C[C@H](C/C(C)=C/[C@@H](OC(=O)/C=C\c4ccc5c(c4)OCO5)[C@H]12)OC3=O | > 10 | 6.1 | –
C=C1C(=O)O[C@@H]2/C=C(\C)C[C@H]3C=C(C[C@H](OC(=O)/C(C)=C\C)[C@@H]12)C(=O)O3 | > 10 | > 10 | –
C=C1C(=O)O[C@H]2CC3=C[C@H](C/C(C)=C/[C@@H](OC(=O)C(C)(C)CC)[C@H]12)OC3=O | 6.1 | 2.2 | –
C=C1C(=O)O[C@H]2CC3=C[C@H](C/C(C)=C/[C@@H](OC(=O)/C=C/c4ccc(N(C)C)cc4)[C@H]12)OC3=O | 1.3 | > 10 | –
C=C1C(=O)O[C@H]2CC3=C[C@H](C/C(C)=C/[C@@H](OC(=O)/C=C/c4ccccc4)[C@H]12)OC3=O | > 10 | 4.8 | –
C=C1C(=O)O[C@H]2CC3=C[C@H](C/C(C)=C/[C@@H](OC(=O)C4CC4)[C@H]12)OC3=O | 3 | 3.2 | –
C=C1C(=O)O[C@H]2CC3=C[C@H](C/C(C)=C/[C@@H](OC(=O)c4ccncc4)[C@H]12)OC3=O | 5.6 | > 10 | –
C=C1C(=O)O[C@H]2CC3=C[C@H](C/C(C)=C/[C@@H](OC(=O)/C=C/c4cccs4)[C@H]12)OC3=O | 2.9 | 4.3 | Activity [3]: Dde; Activity [4]: 1.45%; Activity [5]: 0.53%; Activity [6]: Active; Activity [7]: 32.6%; Activity [8]: Active; Activity [9]: 10.6%; Activity [10]: 27.3%; Activity [11]: 23.9%; viability at 12 h, 25 µM [12]: 96.7%; Activity [13]: Active; viability at 10 µM [14]: 38.2%; viability at 3 µM [15]: 83.2%; Activity [16]: 14.8%
C=C1C(=O)O[C@H]2CC3=C[C@H](C/C(C)=C/[C@@H](OC(=O)c4ccc(C(C)=O)cc4)[C@H]12)OC3=O | 2.2 | 2.3 | –
C=C1C(=O)O[C@@H]2C3O[C@]3(C)CC/C=C(\C)CC[C@@H]12 (stereo not given in full) | 9.6 | > 10 | –
C=C1C(=O)O[C@H]2CC3=C[C@H](C/C(C)=C/[C@@H](OC(=O)CCl)[C@H]12)OC3=O | > 10 | > 10 | –
C=C1C(=O)O[C@H]2CC3=C[C@H](C/C(C)=C/[C@@H](O)[C@H]12)OC3=O | > 10 | > 10 | –
C=C1C(=O)O[C@H]2CC3=C[C@H](C/C(C)=C/[C@@H](OC(=O)/C=C/c4cccc(OC)c4)[C@H]12)OC3=O | > 10 | 6.2 | –
